From patent publication US20060142348A1, “Aryl sulfonamide peri-substituted bicyclics for occlusive artery disease” (deCODE Chemistry, Inc., priority 2004, published 2006)
pIC50: −log10 of the molar value.

Molecular target: T1, prostanoid EP3 receptors (Homo sapiens, UniProt P43115)
T1 sequence (P43115 1-365 isoform P43115-3): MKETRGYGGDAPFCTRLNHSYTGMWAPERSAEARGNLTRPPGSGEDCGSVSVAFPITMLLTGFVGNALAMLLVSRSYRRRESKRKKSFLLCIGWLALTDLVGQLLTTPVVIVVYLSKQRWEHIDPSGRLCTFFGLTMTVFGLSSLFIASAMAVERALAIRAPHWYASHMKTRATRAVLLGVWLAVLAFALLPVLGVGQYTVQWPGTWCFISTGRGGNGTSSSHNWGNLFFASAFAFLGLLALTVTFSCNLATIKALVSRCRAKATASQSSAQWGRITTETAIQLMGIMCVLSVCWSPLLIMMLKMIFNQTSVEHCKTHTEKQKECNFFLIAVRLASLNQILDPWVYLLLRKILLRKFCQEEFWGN
Assay: binding on prostanoid EP3 receptors (method of Abramovitz et al.)
Details: read-out: Activity (EP3 receptor binding IC50)
Method: The compounds of the invention may be assayed for their binding on prostanoid EP3 receptors according to the method of Abramovitz et al. [Bioch. Biophys. Actas 1473, 285-293 (2000)]. All of the examples in the tables below have been synthesized, characterized and tested for EP3 receptor binding.
The compounds of the invention were assayed for their binding on prostanoid EP3 receptors according to the method of Abramovitz et al. [Bioch. Biophys. Acta, 1473, 285-293 (2000)]. […] Compounds with IC50<1 μM are shown as +++; compounds with IC50<1-10 μM are shown as ++; and compounds with IC50>10 μM are shown as +.

| pIC50 | SMILES |
| --- | --- |
| > 6.00 | Cn1cc(Cc2ccc3ccccc3c2)c2c(-c3cc(NS(=O)(=O)c4cc(Cl)c(Cl)s4)n[nH]3)cccc21 [Compound B01, 4,5-Dichloro-thiophene-2-sulfonic acid [5-(1-methyl-3-naphthalen-2-ylmethyl-1H-indol-4-yl)-1H-pyrazol-3-yl]-amide] |
| 5.00 to 6.00 | Cn1cc(Cc2ccc3ccccc3c2)c2c(-c3cc(N)nn3S(=O)(=O)c3cc(Cl)c(Cl)s3)cccc21 [Compound B02, 1-(4,5-Dichloro-thiophene-2-sulfonyl)-5-(1-methyl-3-naphthalen-2-ylmethyl-1H-indol-4-yl)-1H-pyrazol-3-ylamine] |
| 5.00 to 6.00 | Cn1cc(Cc2ccc3ccccc3c2)c2c(-c3cccc(NS(=O)(=O)c4cc(Cl)c(Cl)s4)c3)cccc21 [Compound B03, 4,5-Dichloro-thiophene-2-sulfonic acid[3-(1-methyl-3-naphthalen-2-ylmethyl-1H-indol-4-yl)-phenyl]-amide] |
| 5.00 to 6.00 | Cn1cc(Cc2ccc3ccccc3c2)c2c(-c3ccc(NS(=O)(=O)c4cc(Cl)c(Cl)s4)cc3)cccc21 [Compound B04, 4,5-Dichloro-thiophene-2-sulfonic acid[4-(1-methyl-3-naphthalen-2-ylmethyl-1H-indol-4-yl)-phenyl]-amide] |
| 5.00 to 6.00 | Cc1cn(Cc2ccc(F)c(F)c2)c2c(-c3ccc(NS(C)(=O)=O)cc3)cc(F)cc12 [Compound B06, N-{4-[1-(3,4-Difluoro-benzyl)-5-fluoro-3-methyl-1H-indol-7-yl]-phenyl}-methanesulfonamide] |
| < 5.00 | Cc1cn(Cc2ccc(F)c(F)c2)c2c(-c3ccc(NS(=O)(=O)C(F)(F)F)cc3)cc(F)cc12 [Compound B07, N-{4-[1-(3,4-Difluoro-benzyl)-5-fluoro-3-methyl-1H-indol-7-yl]-phenyl}-C,C,C-trifluoro-methanesulfonamide] |
| 5.00 to 6.00 | Cn1cc(Cc2ccc3ccccc3c2)c2c(-c3ccc(NS(=O)(=O)C(F)(F)F)cc3)cccc21 [Compound B08, C,C,C-Trifluoro-N-[4-(1-methyl-3-naphthalen-2-ylmethyl-1H-indol-4-yl)-phenyl]-methanesulfonamide] |
| < 5.00 | Cc1cn(Cc2ccc(Cl)cc2Cl)c2c(-c3ccc(NS(C)(=O)=O)cc3)cc(F)cc12 [Compound B09, N-{4-[1-(2,4-Dichloro-benzyl)-5-fluoro-3-methyl-1H-indol-7-yl]-phenyl}-methanesulfonamide] |
| 5.00 to 6.00 | Cc1cn(Cc2ccc(Cl)cc2Cl)c2c(-c3nnc(NC(=O)C(F)(F)F)o3)cc(F)cc12 [Compound B10, N-{5-[1-(2,4-Dichloro-benzyl)-5-fluoro-3-methyl-1H-indol-7-yl]-[1,3,4]oxadiazol-2-yl}-2,2,2-trifluoro-acetamide] |
| 5.00 to 6.00 | Cc1cn(Cc2ccc(Cl)cc2Cl)c2c(-c3nnc(NS(C)(=O)=O)o3)cc(F)cc12 [Compound B11, N-{5-[1-(2,4-Dichloro-benzyl)-5-fluoro-3-methyl-1H-indol-7-yl]-[1,3,4]oxadiazol-2-yl}-methanesulfonamide] |
| > 6.00 | Cc1cn(Cc2ccc(Cl)cc2Cl)c2c(-c3nnc(NS(=O)(=O)c4cc(F)c(F)cc4F)o3)cc(F)cc12 [Compound B12, N-{5-[1-(2,4-Dichloro-benzyl)-5-fluoro-3-methyl-1H-indol-7-yl]-[1,3,4]oxadiazol-2-yl}-2,4,5-trifluoro-benzenesulfonamide] |
| > 6.00 | Cc1cn(Cc2ccc(Cl)cc2Cl)c2c(-c3nnc(NS(=O)(=O)c4cc(Cl)c(Cl)s4)o3)cc(F)cc12 [Compound B13, 4,5-Dichloro-thiophene-2-sulfonic acid {5-[1-(2,4-dichloro-benzyl)-5-fluoro-3-methyl-1H-indol-7-yl]-[1,3,4]oxadiazol-2-yl}-amide] |
| 5.00 to 6.00 | Cc1cn(Cc2ccc(F)c(F)c2)c2c(-c3cc(NS(C)(=O)=O)n(C)n3)cc(F)cc12 [Compound B14, N-{5-[1-(3,4-Difluoro-benzyl)-5-fluoro-3-methyl-1H-indol-7-yl]-2-methyl-2H-pyrazol-3-yl}-methanesulfonamide] |
| 5.00 to 6.00 | Cc1cn(Cc2ccc(F)c(F)c2)c2c(-c3cc(NS(=O)(=O)c4cc(Cl)c(Cl)s4)n(C)n3)cc(F)cc12 [Compound B15, 4,5-Dichloro-thiophene-2-sulfonic acid {5-[1-(3,4-difluoro-benzyl)-5-fluoro-3-methyl-1H-indol-7-yl]-2-methyl-2H-pyrazol-3-yl}-amide] |
| < 5.00 | Cc1cn(Cc2ccc(F)c(F)c2)c2c(-c3cc(NS(C)(=O)=O)no3)cc(F)cc12 [Compound B16, N-{5-[1-(3,4-Difluoro-benzyl)-5-fluoro-3-methyl-1H-indol-7-yl]-isoxazol-3-yl}-methanesulfonamide] |
| 5.00 to 6.00 | CC(=O)Nc1ccc(-c2cccc3c2c(Cc2ccc4ccccc4c2)cn3C)cc1 [Compound B17, N-[4-(1-Methyl-3-naphthalen-2-ylmethyl-1H-indol-4-yl)-phenyl]-acetamide] |
| > 6.00 | Cn1cc(Cc2ccc3ccccc3c2)c2c(-c3ccc(NC(=O)C(F)(F)F)cc3)cccc21 [Compound B18, 2,2,2-Trifluoro-N-[4-(1-methyl-3-naphthalen-2-ylmethyl-1H-indol-4-yl)-phenyl]-acetamide] |
| > 6.00 | Cc1cn(Cc2ccc(Cl)cc2Cl)c2c(-c3nnc(NS(=O)(=O)c4ccc(F)c(F)c4)o3)cc(F)cc12 [Compound B19, N-{5-[1-(2,4-Dichloro-benzyl)-5-fluoro-3-methyl-1H-indol-7-yl]-[1,3,4]oxadiazol-2-yl}-3,4-difluoro-benzenesulfonamide] |
| > 6.00 | Cc1cn(Cc2ccc(Cl)cc2Cl)c2c(-c3nnc(NS(=O)(=O)c4ccc(Cl)c(Cl)c4)o3)cc(F)cc12 [Compound B20, 3,4-Dichloro-N-{5-[1-(2,4-dichloro-benzyl)-5-fluoro-3-methyl-1H-indol-7-yl]-[1,3,4]oxadiazol-2-yl}-benzenesulfonamide] |
| 5.00 to 6.00 | Cc1cn(Cc2ccc(Cl)cc2Cl)c2c(-c3nnc(NC(=O)c4ccc(F)cc4)o3)cc(F)cc12 [Compound B23, N-{5-[1-(2,4-Dichloro-benzyl)-5-fluoro-3-methyl-1H-indol-7-yl]-[1,3,4]oxadiazol-2-yl}-4-fluoro-benzamide] |
| 5.00 to 6.00 | Cc1cn(Cc2ccc(Cl)cc2Cl)c2c(-c3nnc(NC(=O)c4ccno4)o3)cc(F)cc12 [Compound B24, Isoxazole-5-carboxylic acid {5-[1-(2,4-dichloro-benzyl)-5-fluoro-3-methyl-1H-indol-7-yl]-[1,3,4]oxadiazol-2-yl}-amide] |
| < 5.00 | Cc1cn(Cc2ccc(Cl)cc2Cl)c2c(-c3nnc(NC(=O)c4cc(Cl)cc(Cl)c4)o3)cc(F)cc12 [Compound B25, 3,5-Dichloro-N-{5-[1-(2,4-dichloro-benzyl)-5-fluoro-3-methyl-1H-indol-7-yl]-[1,3,4]oxadiazol-2-yl}-benzamide] |
| > 6.00 | Cc1cn(Cc2ccc(Cl)cc2Cl)c2c(-c3nnc(NC(=O)c4ccc(F)c(F)c4)o3)cc(F)cc12 [Compound B26, N-{5-[1-(2,4-Dichloro-benzyl)-5-fluoro-3-methyl-1H-indol-7-yl]-[1,3,4]oxadiazol-2-yl}-3,4-difluoro-benzamide] |

| SMILES | pIC50 |
| --- | --- |
| Cn1cc(Cc2ccc3ccccc3c2)c2c(-c3ccc(NS(C)(=O)=O)cc3)cccc21 [Compound B05, N-[4-(1-Methyl-3-naphthalen-2-ylmethyl-1H-indol-4-yl)-phenyl]-methanesulfonamide] | 5.00 to 6.00 |
